Results on two compounds are retold here after patent US12083138B2, “Methods to reduce complications of intra-articular steroid” (TAIWAN LIPOSOME CO., LTD., priority 2018, dated 2024).

One data set has as its system chondrocyte. Conditions: compared among hydrocortisone, triamcinolone and dexamethasone; cited from earlier work.
The subject of another data set is cartilage. As to the kind of experiment: Cartilage toluidine blue staining, comparison of TLC599 with TA and ER-TA, Study #75903-18-214.

Protocol for cartilage: Proteoglycan loss was evaluated by cationic dyes, toluidine blue, that staining proteoglycans.

Consider `C[C@@H]1C[C@H]2[C@@H]3CCC4=CC(=O)C=C[C@]4(C)[C@@]3(F)[C@@H](O)C[C@]2(C)[C@@]1(O)C(=O)CO` [dexamethasone], for which the “effectiveness to induce chondrocyte apoptosis” value in the data set with chondrocyte was “most effective”.

Regarding `CC1(C)O[C@@H]2C[C@H]3[C@@H]4CCC5=CC(=O)C=C[C@]5(C)[C@@]4(F)[C@@H](O)C[C@]3(C)[C@]2(C(=O)CO)O1` [TA, triamcinolone acetonide], the “proteoglycan loss (toluidine blue staining)” value in the data set on cartilage (high dose 18.75 mg/knee, single IA injection, vs saline (FIG. 3)) is reported as “significantly proteoglycan loss compared to saline”. For the same compound, in the data set with cartilage (single dose (FIG. 3)), the “proteoglycan loss in cartilage” value is listed as “moderate proteoglycan loss”.
